Like-named read-outs stand apart in the source and are kept apart here.
## Cn1c(=O)c2c(ncn2C)n(C)c1=O [caffeine]
human, 4 h, 10 mg/mL, pH 7.4
  factor of enhancement of transdermal delivery as compared with the control: approximately 7

## CN1CCCC1c1cccnc1 (stereo not shown) [nicotine]
3 hour permeation period, 3500 Hz, pulse duration 5 μs, 19 kV, 100% duty cycle (setting 9500)
  factor of enhancement of transdermal delivery as compared with the control: approximately 33

## O=C(O)Cc1ccccc1Nc1c(Cl)cccc1Cl [diclofenac sodium]
human, 4 h, 10 mg/mL, pH 7.4
  factor of enhancement of transdermal delivery: approximately 2
human, 4 h, pH 7.4
  factor of enhancement of transdermal delivery: about 4

Reference: US20160089545A1, “METHODS AND APPARATUS FOR DELIVERY OF MOLECULES ACROSS LAYERS OF TISSUE” (EP Technologies LLC, priority 2013, published 2016)
